Experimental data from the supplement of paper PMC5908809.

Tests used:
Experiment in all cases: relative IC50 (inflection point of fitted viability curve, relative to fitted max inhibition); higher = less sensitive
Settings in all cases: 72 h
[1] = system: normal primary NK cells, pool 1 (3 donors), resting (IL-2 0 ng/mL)
Protocol: (§1)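 Drug sensitivity and resistance testing: 5 concentrations over a 10,000-fold range, 72 h at 37 °C, viability by CellTiter-Glo normalised to DMSO and benzethonium chloride controls. IC50 is the inflection point of a logistic fit (min fixed at 0, max fitted), so it is relative to the fitted maximal inhibition. Kept only where fitted max inhibition is at least 50%.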

[2] = system: IMC-1 (IL-2 20 ng/mL)
Protocol: as §1

[3] = system: DERL-7 (IL-2 2.5 ng/mL)
Protocol: as §1

[4] = system: KHYG-1 (IL-2 2.5 ng/mL)
Protocol: as §1

[5] = system: NKL (IL-2 2.5 ng/mL)
Protocol: as §1

[6] = system: SNK-6 (IL-2 2.5 ng/mL)
Protocol: as §1

[7] = system: normal primary NK cells, pool 2 (3 donors) (IL-2 2.5 ng/mL)
Protocol: as §1

[8] = system: NK-YS (IL-2 2.5 ng/mL)
Protocol: as §1

[9] = system: YT (IL-2 2.5 ng/mL)
Protocol: as §1

[10] = system: NK-92 (IL-2 2.5 ng/mL)
Protocol: as §1

[11] = system: normal primary NK cells, pool 3 (3 donors) (IL-2 2.5 ng/mL)
Protocol: as §1

[12] = system: KAI3 (IL-2 2.5 ng/mL)
Protocol: as §1

[13] = system: normal primary NK cells, pool 1 (3 donors) (IL-2 2.5 ng/mL)
Protocol: as §1

| SMILES | relative IC50 [1] | relative IC50 [2] | relative IC50 [3] | relative IC50 [4] | relative IC50 [5] | relative IC50 [6] | relative IC50 [7] | relative IC50 [8] | relative IC50 [9] | relative IC50 [10] | relative IC50 [11] | relative IC50 [12] | relative IC50 [13] |
| --- | --- | --- | --- | --- | --- | --- | --- | --- | --- | --- | --- | --- | --- |
| CC(C)CC(=O)Nc1n[nH]c2c1CN(C(=O)C1CCN(C)CC1)C2(C)C | 4760 nM | 182 nM | 666 nM | 380 nM | 1510 nM | 1650 nM | 1890 nM | 463 nM | 1220 nM | 871 nM | 2210 nM | 1390 nM | 3000 nM |
| COc1ccc(-c2cc3c(C)nc(N)nc3n([C@H]3CC[C@H](OCCO)CC3)c2=O)cn1 | 514 nM | 4020 nM | 41.3 nM | 476 nM | 264 nM | 1060 nM | 951 nM | 344 nM | 116 nM | 84.6 nM | 1510 nM | 163 nM | 939 nM |
| C[C@@H](Oc1ccc2[nH]nc(/C=C/c3cnn(CCO)c3)c2c1)c1c(Cl)cncc1Cl |  | 165 nM | 91.8 nM | 16.1 nM | 11.9 nM | 15.7 nM | 15.6 nM | 59.2 nM | 224 nM | 50.1 nM | 30.1 nM | 20.9 nM | 47.9 nM |
| Cc1c(NC(=O)OC[C@@H]2COCCN2)cn2ncnc(Nc3ccc4c(cnn4Cc4cccc(F)c4)c3)c12 | 3970 nM |  | 2730 nM | 2230 nM | 3110 nM |  | 3090 nM |  |  | 2400 nM |  | 3180 nM |  |
| Cc1nc(Nc2n[nH]c3c2CN(C(=O)N[C@H](CN(C)C)c2ccccc2)C3(C)C)c2sccc2n1 | 1300 nM | 4.06 nM | 57.3 nM | 33.1 nM | 503 nM | 1340 nM | 575 nM | 83.5 nM | 266 nM | 431 nM | 1590 nM | 243 nM | 1420 nM |
| O=C(NOC[C@H](O)CO)c1ccc(F)c(F)c1Nc1ccc(I)cc1F |  |  | 10 nM | 31.6 nM | 19.9 nM |  |  |  |  | > 1000 nM | > 1000 nM |  |  |
| Oc1c2ccccc2c2c3c(cccc13)N=N2 |  |  | 2570 nM | 9700 nM | 4960 nM | 12200 nM |  | 13200 nM |  | 4980 nM |  | 10600 nM | 11000 nM |
| O=C(NC1CCNCC1)c1n[nH]cc1NC(=O)c1c(Cl)cccc1Cl [AT7519] | 400 nM | 317 nM | 356 nM | 753 nM | 204 nM | 307 nM | 319 nM | 236 nM | 424 nM | 1270 nM | 381 nM | 355 nM | 265 nM |
| O=C(Nc1c[nH]nc1-c1nc2ccc(CN3CCOCC3)cc2[nH]1)NC1CC1 [AT9283] | > 1000 nM | 78 nM | 41.1 nM | 47.2 nM | 85.5 nM | 39.7 nM |  | 41.9 nM | 135 nM | 65.8 nM |  | 69.8 nM |  |
| COc1cc(N2CCN(C)CC2)ccc1Nc1nccc(-c2cn(C)c3cnccc23)n1 [AZ191] | 4320 nM | 2910 nM | 1650 nM | 1890 nM | 2340 nM | 3570 nM | 3700 nM | 2440 nM |  | 3940 nM | 3870 nM | 2510 nM | 3430 nM |
| Cc1ncc(-c2ccnc(Nc3ccc(S(C)(=O)=O)cc3)n2)n1C(C)C [AZD-5438] | 5260 nM | 1220 nM | 1370 nM | 1080 nM | 2740 nM | 3300 nM | 1930 nM | 848 nM | 1570 nM | 3010 nM | 1800 nM | 1150 nM | 2220 nM |
| CO[C@H]1/C=C\C=C(/C)C(=O)NC2=CC(=O)C(NCCN(C)C)=C(C[C@@H](C)C[C@H](OC)[C@H](O)[C@@H](C)/C=C(\C)[C@@H]1OC(N)=O)C2=O [Alvespimycin] |  | 192 nM | 49.1 nM | 91.8 nM | 31.9 nM | 20.5 nM | 29.5 nM | 25.1 nM | 130 nM | 68.8 nM | 86.5 nM | 44.5 nM | 29.4 nM |
| S=C(NCc1ccc2c(c1)OCO2)N1CCN(c2ncnc3c2oc2ccccc23)CC1 [Amuvatinib] | 1380 nM |  | 521 nM | 1330 nM | 815 nM | 388 nM | 1930 nM | 2060 nM |  | 911 nM | 1760 nM | 1480 nM | 1570 nM |
| CC(C)(C#N)c1cc(Cn2cncn2)cc(C(C)(C)C#N)c1 [Anastrozole] |  | > 10000 nM |  | > 10000 nM |  |  | > 10000 nM | > 10000 nM |  |  | > 10000 nM |  |  |
| CCNC(=O)CCC/C=C\C[C@@H]1[C@@H](/C=C/[C@@H](O)CCc2ccccc2)[C@H](O)C[C@@H]1O [Bimatoprost] |  | > 5500 nM | > 5500 nM | > 5500 nM |  |  | > 5500 nM | > 5500 nM | > 5500 nM | > 5500 nM | > 5500 nM | > 5500 nM |  |
| COc1cc(Nc2c(C#N)cnc3cc(OCCCN4CCN(C)CC4)c(OC)cc23)c(Cl)cc1Cl [Bosutinib] | 850 nM | 3640 nM | 1320 nM | 1480 nM | 3110 nM | 3870 nM | 1520 nM | 2980 nM | 1950 nM | 1620 nM | 3450 nM | 1350 nM | 1710 nM |
| CCC/C=C/C=C/C(=O)O[C@H]1/C(=C/C(=O)OC)C[C@H]2C[C@H]([C@@H](C)O)OC(=O)C[C@H](O)C[C@@H]3C[C@H](OC(C)=O)C(C)(C)[C@](O)(C[C@@H]4C/C(=C/C(=O)OC)C[C@H](/C=C/C(C)(C)[C@]1(O)O2)O4)O3 [Bryostatin 1] |  | 0.28 nM |  | 0.13 nM | > 100 nM | 1 nM | > 100 nM |  |  | 0.23 nM | > 100 nM |  | > 100 nM |
| COc1ccc(-c2nc(N3CCOCC3)c3sc(CN(C)c4ncc(C(=O)NO)cn4)cc3n2)cn1 [CUDC-907] | 3.45 nM | 13 nM | 1.6 nM | 2.32 nM | < 1 nM | 7.89 nM | 5.81 nM | 8.33 nM | 14.7 nM | 2.64 nM | 8.82 nM | < 1 nM | 6.42 nM |
| Cc1nc(N)sc1-c1ccnc(Nc2ccc(N3CCOCC3)cc2)n1 [CYC-116] |  | 913 nM | 538 nM | 599 nM | 989 nM | 171 nM | 1600 nM | 238 nM | 1400 nM | 889 nM | 2800 nM | 1100 nM | 1810 nM |
| COc1cc2nccc(Oc3ccc(NC(=O)C4(C(=O)Nc5ccc(F)cc5)CC4)cc3)c2cc1OC [Cabozantinib] |  |  |  |  |  |  |  |  |  |  |  |  | > 1000 nM |
| CC(C)C[C@H](NC(=O)[C@H](CCc1ccccc1)NC(=O)CN1CCOCC1)C(=O)N[C@@H](Cc1ccccc1)C(=O)N[C@@H](CC(C)C)C(=O)[C@@]1(C)CO1 [Carfilzomib] | 1.41 nM | 3.26 nM | 0.92 nM | 2.95 nM | 3.52 nM | 2.8 nM | 1.77 nM | 2.91 nM | 3.07 nM | 1.96 nM | 2.58 nM | 1.43 nM | 1.61 nM |
